Laboratory results published in patent US6288110A, “Pharmaceutical compositions comprising disulfiram” (Yeda Research and Development Co Ltd., priority 1998, dated 2001).

Legend:
mammary tumors = settings: N-2-fluorenylacetamide or N-hydroxy-N-2-fluorenylacetamide, rats; cited from earlier work
BALB/MK keratinocytes = test: Apoptosis by FACS in BALB/MK keratinocytes; format: cell-based, murine; settings: 4 μM (not shown)
Procedure: Cells were cultured in plastic tissue culture dishes for 48 hours in presence of growth media as described above, until reaching 40-50% confluency. Disulfiram was then added to the cells for 20 hours. The cells were removed from the plates by EDTA-trypsin and fixed in ice-cold 70% ethanol (BioLab, Israel) in -20° C. for 2 hr to overnight. The fixed cells (2-5×10^6) were washed once with HEPES-buffered saline (HBSS) and incubated with 0.5 mg/ml RNAseH (Boehringer Mannheim). Afterwards the cells were resuspended in HBSS containing 50 μg/ml propidium iodide (Sigma) and subsequently analyzed on a FACSort flow cytometer (Beckton Dickinson Inc.) using Lysis II software. For the analysis, 10,000 cells were examined from each sample. The percentage of the hypodiploid cells was measured (Darzynkiewicz, 1992; Afanasyev, 1993). The cell cycle histogram was divided into four regions according to the cell cycle phases: Ap, apoptotic cells; G1, diploid cells; S, intermediate cells; and G2 /M, tetraploid cells.

[1] = in vivo; cited from earlier work
[2] = system: transmammary carcinogenesis; settings: 7,12-dimethylbenz(a)anthracene, mice; cited from earlier work
[3] = system: bovine aortic vascular smooth muscle cells (BSMC); test: DNA synthesis (3H-thymidine incorporation) in BSMC; format: cell-based
Procedure: Bovine aortic vascular smooth muscle cells (BSMC) were cultured in low glucose DMEM (1 g/liter) supplemented with 10% FCS (HyClone, Logan, Utah) and GPS.
Bovine capillary endothelial cells (BCE) and bovine aortic BSMC were plated in 24-well plates (6000 cells per well) in 500 μl DMEM medium supplemented with 10% Colorado calf serum (CCS) (GIBCO, USA) and GPS. After 24 hours, medium was changed to starvation medium (2% CCS, 0.5% BSA, GPS) for 24 hours. ^3 H-methyl-thymidine (5 μCi/ml) was added for the last 6 hours. DNA synthesis assays were performed as described above, in triplicates. DNA synthesis assays in BALB/MK keratinocytes were performed as previously described (Marikovsky, 1995).-DNA synthesis assays were performed in triplicates.
Disulfiram was prepared in 0.1 mM stock solutions in DMSO. […] Inhibition was calculated as percentage of DNA synthesis of control.
To determine whether disulfiram acts directly on endothelial cells rather than on accessory cells such as macrophages and mast cells that can be responsible for the development of an angiogenic response in vivo, the effect of the drug on the growth of BCE cells was examined in vitro as described in section (c) of "Materials and Methods" above. DNA synthesis in BCE cells was measured in presence of increasing concentrations of disulfiram incubated for 24 hours with the cells. […]

[4] = system: ifosfamide- and cyclophosphamide-induced urotoxicity; settings: administered simultaneously with ifosfamide or cyclophosphamide, mice; cited from earlier work
[5] = cited from earlier work
bladder cancer = settings: N-butyl-N-(4-hydroxybutyl)nitrosamine or N-butyl-N-(3-carboxypropyl)nitrosamine, rats; cited from earlier work
[6] = system: kidney, liver, stomach, lungs and spleen; test: Pathological and histological examination of tissues of treated animals; format: in vivo, mice
Procedure: C6 rat glioma cells (10^6) were injected subcutaneously into the back of the neck of CD1 nude male mice. After 3 days, 1 ml of aqueous solutions with or without 0.1-0.5 mM disulfiram (25-120 μg) was introduced per os to the mice using a feeding needle. Mice were orally fed three times per week. Tumors were removed 30 days following C6 cells injection, weighed, fixed in buffered formalin and histological sections were prepared. Each experimental group included 8 animals, and experiments were repeated twice.
Since disulfiram inhibits angiogenesis both in vivo in mice and in vitro in C6 glioma cells, it can be assumed that tumor growth inhibition observed for disulfiram is the result of its dual action, one on the neovascularization of the tumor and one on the C6 glioma cells. […] Blood vessels examined in these tissues were also not affected.

aldehyde dehydrogenases = settings: cited from earlier work

SMILES: CCN(CC)C(=S)SSC(=S)N(CC)CC [disulfiram, Bis(diethylthiocarbamoyl) disulfide]
- incidence of mammary tumors (mammary tumors): reduce the incidence of mammary tumors
- apoptosis by FACS (BALB/MK keratinocytes): did not exhibit induction of apoptosis
- conversion into main metabolite diethyldithiocarbamate (DDC) [1]: quickly converted
- inhibition of transmammary carcinogenesis [2]: inhibit transmammary carcinogenesis
- maximal inhibitory activity (DNA synthesis) ([3]; 0.5-1 μM disulfiram): 80%
- inhibition at 1 µM ([3]; Bos taurus, 1 μM, 4 hours of incubation): 50%
- protection against urotoxicity [4]: protect mice
- solubility in water [5]: soluble in water
- solubility in methanol, acetone or chloroform ([5]; hydrophobic solutions): solubilizes better
- interference with induction of bladder cancer (bladder cancer): interfere with induction of cancer
- effect on blood vessels in tissues [6]: not affected
- pathological effect on tissues [6]: no effect on these tissues
- inhibition of aldehyde dehydrogenases (aldehyde dehydrogenases): inhibit
